Measurements published in ChEMBL document CHEMBL1154064, “Synthesis and DNA cleavage activity of 2-hydrazinyl-1,4,5,6-tetrahydropyrimidine containing hydroxy group” (2009).
The source made the active and inactive calls. The calls are words filed in the database; no cut-off is given here.

Assays:
Nucleic Acid [1] = assay: Binding affinity to Escherichia coli pUC19 DNA assessed as form 1 DNA level at 0.463 mM after 9.07 hrs by agarose gel electrophoresis; format: nucleic-acid assay
Nucleic Acid [2] = assay: Binding affinity to Escherichia coli pUC19 DNA assessed as form 1 DNA level at 0.320 mM after 23.12 hrs by agarose gel electrophoresis; format: nucleic-acid assay
Nucleic Acid [3] = assay: Binding affinity to Escherichia coli pUC19 DNA assessed as form 2 DNA level at 0.463 mM after 23.12 hrs by agarose gel electrophoresis; format: nucleic-acid assay
HeLa = assay: Growth inhibition of human HeLa cells at 100 uM after 72 hrs by MTT assay; format: functional; set-up: scale not given: the % may be the effect or the level left
Nucleic Acid [4] = assay: Binding affinity to Escherichia coli pUC19 DNA assessed as form 1 DNA level at 0.320 mM after 13.07 hrs by agarose gel electrophoresis; format: nucleic-acid assay
Nucleic Acid [5] = assay: Binding affinity to supercoiled Escherichia coli pUC19 DNA assessed as formation of nicked circular DNA at 1.10 mM at pH 6.0 for 24 hrs in presence of sodium azide by agarose gel electrophoresis; format: nucleic-acid assay
Nucleic Acid [6] = assay: Binding affinity to Escherichia coli pUC19 DNA assessed as form 2 DNA level at 0.130 mM after 14 hrs by agarose gel electrophoresis; format: nucleic-acid assay
Nucleic Acid [7] = assay: Binding affinity to Escherichia coli pUC19 DNA assessed as form 2 DNA level at 0.349 mM after 5.40 hrs by agarose gel electrophoresis; format: nucleic-acid assay
Nucleic Acid [8] = assay: Binding affinity to Escherichia coli pUC19 DNA assessed as form 1 DNA level at 0.698 mM after 23.80 hrs by agarose gel electrophoresis; format: nucleic-acid assay
Nucleic Acid [9] = assay: Binding affinity to Escherichia coli pUC19 DNA assessed as form 2 DNA level at 0.130 mM after 8.08 hrs by agarose gel electrophoresis; format: nucleic-acid assay
Nucleic Acid [10] = assay: Binding affinity to Escherichia coli pUC19 DNA assessed as form 1 DNA level at 0.262 mM after 28.18 hrs by agarose gel electrophoresis; format: nucleic-acid assay
Nucleic Acid [11] = assay: Binding affinity to Escherichia coli pUC19 DNA assessed as form 2 DNA level at 0.349 mM after 24.08 hrs by agarose gel electrophoresis; format: nucleic-acid assay
Nucleic Acid [12] = assay: Binding affinity to Escherichia coli pUC19 DNA assessed as form 1 DNA level at 0.349 mM by agarose gel electrophoresis; format: nucleic-acid assay
Nucleic Acid [13] = assay: Binding affinity to Escherichia coli pUC19 DNA assessed as form 2 DNA level at 0.463 mM after 13.07 hrs by agarose gel electrophoresis; format: nucleic-acid assay
Nucleic Acid [14] = assay: Binding affinity to Escherichia coli pUC19 DNA assessed as form 1 DNA level at 0.463 mM after 31.48 hrs by agarose gel electrophoresis; format: nucleic-acid assay
Nucleic Acid [15] = assay: Binding affinity to Escherichia coli pUC19 DNA assessed as form 2 DNA level at 0.320 mM after 29.33 hrs by agarose gel electrophoresis; format: nucleic-acid assay
Nucleic Acid [16] = assay: Binding affinity to Escherichia coli pUC19 DNA assessed as form 2 DNA level at 0.349 mM after 28.18 hrs by agarose gel electrophoresis; format: nucleic-acid assay
Nucleic Acid [17] = assay: Binding affinity to Escherichia coli pUC19 DNA assessed as form 2 DNA level at 0.463 mM after 4.95 hrs by agarose gel electrophoresis; format: nucleic-acid assay
Nucleic Acid [18] = assay: Binding affinity to Escherichia coli pUC19 DNA assessed as form 1 DNA level at 0.320 mM after 4.95 hrs by agarose gel electrophoresis; format: nucleic-acid assay
Nucleic Acid [19] = assay: Binding affinity to Escherichia coli pUC19 DNA assessed as form 1 DNA level at 0.698 mM after 3.72 hrs by agarose gel electrophoresis; format: nucleic-acid assay
Nucleic Acid [20] = assay: Binding affinity to Escherichia coli pUC19 DNA assessed as form 1 DNA level at 0.175 mM after 31.48 hrs by agarose gel electrophoresis; format: nucleic-acid assay
Nucleic Acid [21] = assay: Binding affinity to Escherichia coli pUC19 DNA assessed as form 1 DNA level at 0.130 mM by agarose gel electrophoresis; format: nucleic-acid assay
Nucleic Acid [22] = assay: Binding affinity to Escherichia coli pUC19 DNA assessed as form 1 DNA level at 0.463 mM after 23.12 hrs by agarose gel electrophoresis; format: nucleic-acid assay
Nucleic Acid [23] = assay: Binding affinity to Escherichia coli pUC19 DNA assessed as form 2 DNA level at 0.175 mM after 25.35 hrs by agarose gel electrophoresis; format: nucleic-acid assay
Nucleic Acid [24] = assay: Binding affinity to Escherichia coli pUC19 DNA assessed as form 2 DNA level at 0.698 mM after 6.42 hrs by agarose gel electrophoresis; format: nucleic-acid assay
Nucleic Acid [25] = assay: Binding affinity to Escherichia coli pUC19 DNA assessed as form 2 DNA level at 0.175 mM after 13.07 hrs by agarose gel electrophoresis; format: nucleic-acid assay
Nucleic Acid [26] = assay: Binding affinity to supercoiled Escherichia cloli pUC19 DNA assessed as formation of nicked circular DNA at 1.10 mM at pH 6.0 to 8.5 for 24 hrs by agarose gel electrophoresis; format: nucleic-acid assay; settings: Escherichia coli
Nucleic Acid [27] = assay: Binding affinity to Escherichia coli pUC19 DNA assessed as form 1 DNA level at 0.262 mM by agarose gel electrophoresis; format: nucleic-acid assay
Nucleic Acid [28] = assay: Binding affinity to Escherichia coli pUC19 DNA assessed as form 1 DNA level at 0.262 mM after 27.07 hrs by agarose gel electrophoresis; format: nucleic-acid assay
Nucleic Acid [29] = assay: Binding affinity to Escherichia coli pUC19 DNA assessed as form 1 DNA level at 0.349 mM after 28.18 hrs by agarose gel electrophoresis; format: nucleic-acid assay
Nucleic Acid [30] = assay: Binding affinity to Escherichia coli pUC19 DNA assessed as form 1 DNA level at 0.698 mM after 8.45 hrs by agarose gel electrophoresis; format: nucleic-acid assay
Nucleic Acid [31] = assay: Binding affinity to Escherichia coli pUC19 DNA assessed as form 2 DNA level at 0.130 mM after 11.30 hrs by agarose gel electrophoresis; format: nucleic-acid assay
Nucleic Acid [32] = assay: Binding affinity to Escherichia coli pUC19 DNA assessed as form 1 DNA level at 0.349 mM after 24.08 hrs by agarose gel electrophoresis; format: nucleic-acid assay
Nucleic Acid [33] = assay: Binding affinity to Escherichia coli pUC19 DNA assessed as form 1 DNA level at 0.698 mM by agarose gel electrophoresis; format: nucleic-acid assay
Nucleic Acid [34] = assay: Binding affinity to Escherichia coli pUC19 DNA assessed as form 1 DNA level at 0.320 mM after 25.35 hrs by agarose gel electrophoresis; format: nucleic-acid assay
Nucleic Acid [35] = assay: Binding affinity to Escherichia coli pUC19 DNA assessed as form 2 DNA level at 0.175 mM after 29.33 hrs by agarose gel electrophoresis; format: nucleic-acid assay
Nucleic Acid [36] = assay: Binding affinity to Escherichia coli pUC19 DNA assessed as form 2 DNA level at 0.262 mM after 26.15 hrs by agarose gel electrophoresis; format: nucleic-acid assay
Nucleic Acid [37] = assay: Binding affinity to Escherichia coli pUC19 DNA assessed as form 1 DNA level at 0.698 mM after 10.70 hrs by agarose gel electrophoresis; format: nucleic-acid assay
Nucleic Acid [38] = assay: Binding affinity to Escherichia coli pUC19 DNA assessed as form 1 DNA level at 0.175 mM after 29.33 hrs by agarose gel electrophoresis; format: nucleic-acid assay
HL-60 [39] = assay: Growth inhibition of human HL60 cells at 10 uM after 72 hrs by MTT assay; format: functional; set-up: scale not given: the % may be the effect or the level left
HL-60 [40] = assay: Growth inhibition of human HL60 cells at 1000 uM after 72 hrs by MTT assay; format: functional; set-up: scale not given: the % may be the effect or the level left

Cl.Cl.NNC1=NCC(O)CN1 (stereo unspecified)
Activity (Nucleic Acid [1]): 83.3% | Activity (Nucleic Acid [2]): 68% | Activity (Nucleic Acid [3]): 38% | Activity (HeLa): 0% | Activity (Nucleic Acid [4]): 84.7% | Activity (Nucleic Acid [5]): inactive | Activity (Nucleic Acid [6]): 24.4% | Activity (Nucleic Acid [7]): 3.73% | Activity (Nucleic Acid [8]): 55% | Activity (Nucleic Acid [9]): 16.2% | Activity (Nucleic Acid [10]): 84.1% | Activity (Nucleic Acid [11]): 28.1% | Activity (Nucleic Acid [12]): 97.5% | Activity (Nucleic Acid [13]): 22.5% | Activity (Nucleic Acid [14]): 51.1% | Activity (Nucleic Acid [15]): 65.2% | Activity (Nucleic Acid [16]): 34.4% | Activity (Nucleic Acid [17]): 7.36% | Activity (Nucleic Acid [18]): 94% | Activity (Nucleic Acid [19]): 94.9% | Activity (Nucleic Acid [20]): 74% | Activity (Nucleic Acid [21]): 88.6% | Activity (Nucleic Acid [22]): 62% | Activity (Nucleic Acid [23]): 21.1% | Activity (Nucleic Acid [24]): 13.4% | Activity (Nucleic Acid [25]): 9.19% | Activity (Nucleic Acid [26]): Active | Activity (Nucleic Acid [27]): 97.2% | Activity (Nucleic Acid [28]): 84.7% | Activity (Nucleic Acid [29]): 65.6% | Activity (Nucleic Acid [30]): 84.8% | Activity (Nucleic Acid [31]): 21.8% | Activity (Nucleic Acid [32]): 71.9% | Activity (Nucleic Acid [33]): 98.1% | Activity (Nucleic Acid [34]): 64% | Activity (Nucleic Acid [35]): 23.7% | Activity (Nucleic Acid [36]): 13.7% | Activity (Nucleic Acid [37]): 78.2% | Activity (Nucleic Acid [38]): 76.3% | Activity (HL-60 [39]): 2% | Activity (HL-60 [40]): 91%
